Measured values reported in patent EP1052287A2, “Complex for transferring an anionic substance of interest into a cell” (TRANSGENE S.A., priority 1999, dated 2000).
Where no end group is shown, it is not given here.

Legend:
[1] = system: plasmid pTGl1033; experiment: Gel retardation assay, agarose gel electrophoresis (Example 2); assay type: binding
Description: (§1) Gel retardation assay was performed with C1qA (4-26) (SEQ ID NO:1) in several buffers: PBS, TBS, 5% glucose, or ultrafiltrated serum (YM10 Amicon membrane). DNA and peptides have been mixed at charge ratios [-/+] of [1:4], [1:1] and [1:0.2].

[2] = Size of peptide/DNA complexes by quasi-elastic light scattering; assay type: physicochemical; conditions: complexes (-/+) [1:4], 6 µg DNA, 500 µl
Description: Sizes of complexes prepared with a plasmid DNA (PTG11033; see EP-A 890 32, 9.6 kb) and the C1qA (4-26) peptide (SEQ ID NO:1)see Table I) were evaluated. Complexes were formulated either in 5% glucose or in ultrafiltrated foetal calf serum (YM10 Amicon membrane). Formulation was made in 500 µl buffer, with 6 µg DNA and the quantity of peptide necessary to form a [1:4], [-:+] complex. As a control a polylysine SV40 NLS peptide was used. […] When oxidized, the dimerized C1qA peptide could form even smaller complexes, whatever the formulation buffer used. The reasonable sizes obtained in ultrafiltrated serum with C1qA peptides is an advantage for the use of this peptide rather than polylysine derivatives.
Complexes (-/+):[1:4], 6 µg DNA, 500 µl. Size measures: quasi-elastic light scattering, COULTER N4+.

[3] = system: plasmid pTG11236; experiment: Gel retardation assay (Example 4); assay type: binding
Description: as §1
Gel retardation assay was performed with peptides SEQ ID NO: 1, SEQ ID NO: 2, SEQ ID NO: 3, SEQ ID NO: 7, SEQ ID NO: 8, SEQ ID NO: 9, SEQ ID NO: 10 , SEQ ID NO: 11, SEQ ID NO: 12, SEQ ID NO: 13, in various media : 5% glucose, 6% Elohes (Fresenius Kabi) and ultrafiltrated serum (YM10 Amicon membrane). Technical conditions are similar to Example 2. DNA and peptides have been mixed at 0.36, 1.44 and 1.8 nmoles of peptide per µg of DNA which correspond to the following charge ratios N/P: […]

[4] = 1.44 nmoles of peptide per µg of DNA
[5] = 1.8 nmoles of peptide per µg of DNA

| Substance | gel retardation of DNA ([1]; charge ratio [-/+] [1:1]) | gel retardation of DNA ([1]; charge ratio [-/+] [1:4], PBS, TBS, 5% glucose or ultrafiltrated serum, 0.8% agarose, TBE) | Sizes in 5% glucose [2] | Sizes in ultrafiltrated serum [2] | retardation of the complexed plasmid DNA [3, 4] | retardation of the complexed plasmid DNA [3, 5] |
| --- | --- | --- | --- | --- | --- | --- |
| SEQ ID NO: 1: synthetic polypeptide consisting of SEQ ID NO:1, C1qA (4-26) of the C1q subunit of C1 complement factor (CRAPDGKKGEAGRPGRRGRPGLK; UniProt P02745 26-48, looked up, fragment) | significative retardation | strong association of DNA to the peptides | 1µm | 300-500 nm | complete retardation | complete retardation |
| SEQ ID NO: 3: C1qA (76-92) peptide (GIKGTKGSPGNIKDQPR; UniProt P02745 98-114, looked up, fragment) |  |  |  |  | complete retardation | complete retardation |
| SP-1052 oxidized: oxidized, dimerized C1qA (4-26) peptide (CRAPDGKKGEAGRPGRRGRPGLK; also: oxidized disulfide-linked dimer; UniProt P02745 26-48, looked up, fragment) |  |  | 200 nm | 300 nm |  |  |
